Results: a melting point compilation (Tetko et al.; mined from patent text by program, amines drawn as free bases though some values may be those of a salt)

| Compound | melting point [°C] |
| --- | --- |
| C=CCN1C(C)(C)CC(O)CC1(C)C | 84 to 85 |
| Cc1c(-c2ccc(OCc3ccccc3)cc2)n(Cc2ccc(OCCCCl)cc2)c2ccc(OCc3ccccc3)cc12 | 130 to 132 |
| CCC(C)(CC)c1cc(NC(=O)c2c(OC)cccc2OC)sn1 | 243 to 244 |
| Cc1nc(Cl)c([N+](=O)[O-])c(NCCOCCNC(=O)OC(C)(C)C)c1C | 70 to 73 |
| OC(CCCl)COc1ccc(F)cc1 (stereo not drawn) | 53 to 55 |
| Nc1ccc(S(=O)(=O)Nc2ccn(C3CCCCC3)c(=O)n2)cc1 | 100 to 120 |
| CCOC(=O)c1ncn2c1CN(C)C(=O)c1c-2cccc1[N+](=O)[O-] | 212 to 213 |
| CCN1CCN(c2c(F)cc3c(=O)c(C(=O)O)cn(CC)c3c2F)CC1 | 236 to 239 |
| CCCN=C(NC#N)NCCSCc1[nH]cnc1C | 108 to 110 |
| CCC1(NC2=NS(=O)(=O)c3sc(Cl)cc3N2)CCC1 | 244 to 246 |
| C[C@H]1C(=O)C2(CC2)C(=O)N1c1ccc(C#N)c(Cl)c1 | 169 to 172 |
| Cc1cc(Oc2cccc(C(F)(F)F)c2)nn1C(=O)NCC1CCCO1 (stereo not drawn) | 101 to 102 |
| CCCCSc1cc(C(=O)O)cc(S(N)(=O)=O)c1Cl | 202 to 203 |
| CCc1nc2ccccc2c(=O)n1-c1ccc(F)cc1 | 178 |
| N#CC1(C#N)C2C=CC(C2)C1(Cl)C(F)(F)F (stereo not drawn) | 173 |
| CCOC(=O)c1cn2c3c(ccc(OC)c3c1=O)OCC2C (stereo not drawn) | 165 to 168 |
| CCON=C(C(C)=NOCc1ccccc1C(=NOC)C(=O)NC)c1ccc(Oc2ccc(Cl)cc2)cc1 | 126 to 129 |
| CN1CC2CN(C)CC(C1)C2OCc1ccccc1 (stereo not drawn) | 70 to 75 |
| CCCCOc1nn(-c2ccc(C(F)(F)F)cn2)cc1CCCOc1ccc(CCC(=O)O)c(OCC)c1 | 102 to 103 |
| CS(=O)(=O)c1ccc(/C(=C2\CCN(CCC(=O)O)C2=O)c2ccc(Cl)cc2)cc1 | 178 to 179 |
| Nc1c(F)c(N2CCNCC2)cc2c1c(=O)c(C(=O)O)cn2C1CC1 | 214 to 216 |
| O=C1c2cc([N+](=O)[O-])cc3c(N4CCCC4)c([N+](=O)[O-])cc(c23)C(=O)N1O | 249 to 250 |
| COc1ccc(NC(=O)OCCCl)c(OC)c1NC(=O)OCCCl | 105 |
| CCc1cc(C#N)sc1-c1ccc2c(c1)C(C)(C)OC(=O)N2 | 160 to 162 |
| Nc1cc(Br)cc(OCCF)c1 | 48.5 to 50 |

| Compound | melting point [°C] |
| --- | --- |
| CCCCN(C(=O)NCCCCCCNC(=O)N(CCCC)C1CC(C)(CC)NC(C)(CC)C1C)C1CC(C)(CC)NC(C)(CC)C1C (stereo not drawn) | 146 |
| COC(=O)c1csc(CCCc2cc3c(=O)[nH]c(N)nc3[nH]2)c1 | 182 to 183 |
| COC(=O)c1cc(O)cc(Cl)c1O | 126 |
| Cc1cc2c(c(C)c1SC#N)CCC(C)(C)O2 | 96 to 97 |
| CC(C)(C)COc1ccc([N+](=O)[O-])cc1 | 36 |
| CN1CCn2nc(Nc3cc(Cl)nn(C)c3=O)cc2C1 | 175 to 176 |
| CC1(C)CCC(C)(C)c2cc(-c3ccccc3C=O)ccc21 | 85 to 87 |
| CCN(C(=O)OC)C1=CC(=O)CC1 | 68 to 68.5 |
| CCOC(=O)c1c(O)ccc(Cc2c[nH]cn2)c1C | 42 to 45 |
| Cc1ccc(C2c3c(C)c(N4CCN(c5ccc(C#N)cc5)CC4)c(C)c(C)c3OC2(C)C)cc1 (stereo not drawn) | 216 to 217 |
| CCN(CC)C(=O)C1CCC2C3CNC4=CC(=O)C=CC4(C)C3CCC12C (stereo not drawn) | > 250 |
| CS(=O)(=O)c1ccc(-c2cc(COCCO)nn2CC2CCCCC2)cc1 | 73 to 75 |
| O=C(C[C@@H](CCCC1CCCCC1)c1nc(CN2CCOCC2)co1)NO | 117 to 119 |
| CC1(C)C(=O)NC(=O)c2c1ccc1nc(Nc3c(Cl)cccc3Cl)[nH]c21 | 290 to 292 |
| COC(=O)c1cncc(OC2SCC(O)C(O)C2O)c1 (stereo not drawn) | 137 |
| CN1CCC(N(C)S(=O)(=O)c2ccc(Nc3nccc(Nc4cc(F)c(F)c(F)c4)n3)cc2)CC1 | 227 |
| Cc1cccc(CC2CNC(=O)O2)c1 (stereo not drawn) | 89 to 90.5 |
| CC1=C(Cl)CC2C(=O)OC(=O)C2C1 (stereo not drawn) | 76 to 78 |
| Cc1c(S(N)(=O)=O)c(-c2nnc(S)o2)nn1C | 243 to 245 |
| CC=CCCCn1cnc2c1c(=O)n(C)c(=O)n2C | 58 to 64 |
| CCOC(=O)C=C(C)C=CC=C(C)C=Cc1c(Cl)cc(OC)cc1Cl | 117 to 118 |
| CCCCCCC(C)(C)c1ccc(C2CC(=O)C=C(C)C2)c(OCc2ccccc2)c1 (stereo not drawn) | 60 to 61 |
| Cc1ccc(COc2ccc(C=NCc3ccco3)cc2)cc1 | 71 |
| NC(=O)C(CCCCCCCCCCCCC(C(N)=O)C1CC1)C1CC1 (stereo not drawn) | 157 to 158 |

Continued, values first:

| melting point [°C] | Compound |
| --- | --- |
| 266 | COc1cc2nc(N3CCN(c4ccnc(Cl)n4)CC3)cc(N)c2cc1OC |
| 124 to 127 | CC(C)(O)c1ccc(-c2nn(Cc3ccccc3)c3ccccc23)o1 |
| 144 to 145 | CC(=O)NC(CO)C(O)c1ccc(C=Cc2csc3ccccc23)s1 (stereo not drawn) |
| 178 to 180 | COc1ccc(C(F)(F)F)cc1NC(=O)Nc1ccc(-c2c(C(N)=O)[nH]c3ccccc23)cc1 |
| 292 | CC(C)n1cc(-c2nc(C(N)=O)c(N)nc2-c2ccc(C#N)cc2)ccc1=O |
| 13.3 | FC(F)c1ccccc1C=C1c2ccccc2CCc2ccccc21 |
| 111 to 113 | Cc1ccc(Cn2c(=O)cc(C(C)C(=O)Oc3ccccc3)c3cc(C)ccc32)cc1 (stereo not drawn) |
| 130 to 132 | CC(=O)N1CCC(c2nn(-c3ccccc3)c3cc(Cl)ccc23)CC1 |
| 83.5 to 84.5 | CCOC(=O)Cc1ccc(-n2cc(F)cn2)cc1 |
| 96 to 97 | CCOC(=O)c1cccc(-c2nc(-c3ccc(C(C)(C)C)cc3)cs2)c1 |
| 205 | CN1C(=O)C(Br)=C(c2c[nH]c3c(OC(c4ccccc4)c4ccccc4)cccc23)C1=O |
| 53 | CN1CCC(OC(c2cccc(N=[N+]=[N-])c2)c2nc3ccccc3[nH]2)CC1 (stereo not drawn) |
| 199 to 202 | CC(C)OC(=O)C1=C(c2cn(C)c3ccccc23)C(=O)NC1=O |
| 150 to 165 | OC(CNCCNc1ccc2[nH]ncc2c1)COc1ccccc1 (stereo not drawn) |
| 97 to 100 | NC(=O)c1cccc(OCCCCCCCc2ccsc2)c1 |
| 126 to 130 | O=C1N(CCN2CCC(c3noc4cc(F)ccc34)CC2)CCN1Cc1ccccc1 |
| 186 to 187 | O=C(O)c1cccc2c1CCc1ccccc1S2 |
| 171 to 172 | COc1cccc2oc(-c3ccc(Cl)cc3)cc(=O)c12 |
| 209 to 210 | CC(=O)c1ccc(-c2cn3ccccc3n2)cc1 |
| 135 | O=C(O)c1ccc(C#CC=Cc2ccccc2-c2ccc(Cl)cc2)cc1 |
| 73 to 77 | CCc1c(-c2ccc(CO)cc2)c2cc(C(C)=O)c3cccc1n32 |
| 112 to 115 | COc1ccc(-c2cccc3c(C(C)C)c(C)nn23)c(Cl)c1 |
| 122 to 141 | COc1ccc(-c2sc(C=NO)c(-c3cccc(OC)c3)c2C)cc1 |
| 136 to 138 | Cc1ccc(-n2nc(C(F)(F)F)cc2-c2ccc(S(C)(=O)=O)cc2)cc1Cl |
| 192 to 193 | Cc1ccn(-c2ccc(C(=O)N3Cc4cccn4Cc4ccccc43)c(F)c2)n1 |
| 105 | O=[N+]([O-])c1sccc1Nc1ccccc1 |
| 111 to 113 | Cc1c(OCC(F)(F)F)ccnc1CS(=O)c1nc2ccccc2n1N (stereo not drawn) |

| melting point [°C] | Compound |
| --- | --- |
| 173 to 175 | NC(=O)c1ccnc(-c2cccc3cc(Cc4cc(F)cc(Cl)c4)sc23)c1 |
| 72 to 73 | COCc1cc2ccccc2oc1=O |
| 204 to 206 | N#Cc1cc(C(=O)c2ccc(C(F)(F)F)cc2)cc(O)c1O |
| 116 to 117 | O=C1SC(=Cc2cccs2)C(=O)N1CCCCSc1cccc2nccn12 |
| 105 to 106 | CCON=C(C)c1ccc2c(c1)ncn2-c1cccc(-c2cccnc2)c1 |
| 69.3 to 71 | Cc1cc(=O)c(OCc2ccccc2)c(C(=O)NC2CCC2)o1 |
| 80 to 81 | CCCn1nnc2c(Nc3ccc(C(C)C)cc3Br)nc(C)nc21 |
| 155 to 156 | O=c1c(Cc2cccnc2)nc2cccnc2n1-c1cccc(-c2ccc3ccccc3c2)c1 |
| 123 to 124 | C(=C(c1ccccc1)N1CCCCC1)C1=NCCC1 |
| 294 to 300 | N#Cc1ccc2nc[nH]c(=O)c2c1 |
| 210 | CCCC(=O)Nc1n[nH]c2cc(-c3ccc(OC)cc3)ccc12 |
| 109 to 111 | CC(=O)NC(C)c1ccc(CN2CCN(c3cccc(F)n3)CC2)cc1 (stereo not drawn) |
| 258 | FC(F)(F)c1cccc(-c2cc(C(F)(F)F)n3cnc(-c4ccncc4)c3n2)c1 |
| 62 | CCOC(=O)c1cc(OC)c2c(OC(C)C)ccc(Br)c2c1 |
| 150 | O=C(CCc1nc(-c2ccccn2)no1)NC1CCN(Cc2ccc(F)c(Cl)c2)CC1 |
| 136 to 138 | CNc1ncc(-c2ccccc2)c(-c2ccccc2)n1 |
| > 260 | CC(C)Cc1ccccc1-n1c(=O)[nH]c2c(C(N)=O)nc(-c3cccc(O)c3)nc21 |
| 100 | O=C1CCN(Cc2ccccn2)CC1C(c1ccccc1)c1ccccc1 (stereo not drawn) |
| 155 | Cc1ncn(Nc2ccc(F)cc2)c1-c1ccccc1 |
| 60.5 | CCOC(=O)Cc1cc(F)ccc1-c1ccccc1 |
| 221 to 223 | CC[C@@H](C)[C@@H]1NC(=O)OC1(c1ccccc1)c1ccccc1 |
| 110 to 112 | Fc1ccc(-c2nccc3c(CCl)cccc23)cc1 |
| 184 to 185 | CCCOc1ccc(C=CC(=O)N2CCN(C)CC2)cc1-c1nc2c(C)cccc2c(=O)[nH]1 |
| 120 to 122 | Clc1ccc(CNc2cc(Cl)nc(Cl)n2)cc1 |
| 236 | Cc1csc(-c2cc(=O)n(C)c3ccc(C(=O)c4ccc(Cl)cc4)cc23)n1 |
| 390 to 395 | Nc1ncc2cc(-c3ccccc3)c(O)nc2n1 |
| 68 to 72 | CC(CCC(=O)O)(c1ccc(OCc2ccc3ccccc3n2)cc1)c1ccc(OCc2nc3ccccc3s2)cc1 (stereo not drawn) |
